Source: ChEMBL document CHEMBL4177666, “Compound design guidelines for evading the efflux and permeation barriers of Escherichia coli with the oxazolidinone class of antibacterials: Test case for a general approach to improving whole cell Gram-negative activity” (Bioorg Med Chem Lett, 2017)
≈ marks a conversion by molar mass, not a printed value.

Key:
Type in all cases: functional
Escherichia coli [1] = assay: Antibacterial activity against gram-negative Escherichia coli MG1655 membrane permeabilized mutant in presence of polymyxinnonapeptide by CLSI broth microdilution method
Escherichia coli [2] = assay: Efflux index, ratio of MIC for wild type Escherichia coli MG1655 to MIC for Escherichia coli MG1655 expressing AcrAB-TolC efflux pump deletion mutant
Escherichia coli [3] = assay: Antibacterial activity against gram-negative Escherichia coli MG1655 expressing AcrAB-TolC efflux pump deletion mutant by CLSI broth microdilution method
Escherichia coli [4] = assay: Antibacterial activity against gram-negative wild type Escherichia coli MG1655 by CLSI broth microdilution method
Escherichia coli [5] = assay: Permeability index, ratio of MIC for wild type Escherichia coli MG1655 to MIC for Escherichia coli MG1655 membrane permeabilized mutant in presence of polymyxinnonapeptide
Staphylococcus aureus = assay: Antibacterial activity against methicillin-susceptible Staphylococcus aureus ATCC 29213 by CLSI broth microdilution method
Bacterial 70S ribosome = assay: Inhibition of protein synthesis in Escherichia coli ribosomes incubated for 1 hr at 37 degC by SDS-PAGE and Gaussia luciferase reporter gene assay

Structure (SMILES): NCc1ccc(-c2ccc(N3C[C@H](CNC(=O)C(F)(F)F)OC3=O)cc2F)cc1
- MIC (Escherichia coli [1]): 11 µg/mL
- Ratio (Escherichia coli [2]): 32
- MIC (Escherichia coli [3]): 2 µg/mL (≈ 4.86 µM)
- MIC (Escherichia coli [4]): 64 µg/mL (≈ 156 µM)
- Ratio (Escherichia coli [5]): 6
- MIC (Staphylococcus aureus): 2 µg/mL (≈ 4.86 µM)

Structure (SMILES): O=C1O[C@@H](CO)CN1c1ccc(-c2cc(O)c(F)cc2F)cc1
- MIC (Escherichia coli [1]): 64 µg/mL
- Ratio (Escherichia coli [2]): >8
- MIC (Escherichia coli [3]): 32 µg/mL (≈ 99.6 µM)
- MIC (Escherichia coli [4]): > 256 µg/mL
- Ratio (Escherichia coli [5]): >4
- MIC (Staphylococcus aureus): 4 µg/mL (≈ 12.5 µM)

Structure (SMILES): CCOc1cnnn1C[C@H]1CN(c2ccc(-c3ccc(CN)cc3)c(F)c2)C(=O)O1
- MIC (Escherichia coli [1]): 256 µg/mL
- Ratio (Escherichia coli [2]): >2
- MIC (Escherichia coli [3]): 128 µg/mL (≈ 311 µM)
- MIC (Escherichia coli [4]): > 256 µg/mL
- Ratio (Escherichia coli [5]): >1
- MIC (Staphylococcus aureus): 32 µg/mL (≈ 77.8 µM)

Structure (SMILES): NCc1ccc(-c2ccc(N3C[C@H](CN4C(=O)CNC4=O)OC3=O)cc2F)cc1
- MIC (Escherichia coli [4]): > 256 µg/mL
- MIC (Staphylococcus aureus): > 64 µg/mL

Structure (SMILES): N/C(=N\O)c1ccc(-c2ccc(N3C[C@H](CO)OC3=O)cc2F)cc1O
- Ratio (Escherichia coli [2]): 1
- Ratio (Escherichia coli [5]): 2

Structure (SMILES): O=C1O[C@@H](CO)CN1c1ccc(-c2ccc(N3C[C@@H](CO)OC3=O)nc2)c(F)c1
- MIC (Escherichia coli [4]): > 128 µg/mL
- MIC (Staphylococcus aureus): 32 µg/mL (≈ 79.3 µM)

Structure (SMILES): NCc1ccc(-c2ccc(N3C[C@H](Cn4nncc4O)OC3=O)cc2F)cc1
- MIC (Escherichia coli [4]): > 64 µg/mL
- MIC (Staphylococcus aureus): > 64 µg/mL

Structure (SMILES): NCc1ncc(-c2ccc(N3C[C@H](CO)OC3=O)cc2F)cc1O
- IC50 (Bacterial 70S ribosome): 192 µM
- Ratio (Escherichia coli [2]): 1.6
- MIC (Escherichia coli [4]): 51 µg/mL (≈ 153 µM)
- Ratio (Escherichia coli [5]): 1.6
- MIC (Staphylococcus aureus): 20 µg/mL (≈ 60 µM)

Structure (SMILES): CC(=O)NC[C@H]1CN(c2ccc(-c3ccnc(N)c3)c(F)c2)C(=O)O1
- MIC (Escherichia coli [1]): 32 µg/mL
- Ratio (Escherichia coli [2]): 16
- MIC (Escherichia coli [3]): 8 µg/mL (≈ 23.2 µM)
- MIC (Escherichia coli [4]): 128 µg/mL (≈ 372 µM)
- Ratio (Escherichia coli [5]): 4
- MIC (Staphylococcus aureus): 2 µg/mL (≈ 5.81 µM)

Structure (SMILES): Nc1cc(-c2ccc(N3C[C@H](CNC(=O)C(F)(F)F)OC3=O)cc2F)ccn1
- MIC (Escherichia coli [1]): 16 µg/mL
- Ratio (Escherichia coli [2]): >=8
- MIC (Escherichia coli [3]): 8 µg/mL (≈ 20.1 µM)
- MIC (Escherichia coli [4]): > 32 µg/mL
- Ratio (Escherichia coli [5]): >=4
- MIC (Staphylococcus aureus): 4 µg/mL (≈ 10 µM)

Structure (SMILES): COc1ccccc1-c1ccc(N2C[C@H](CO)OC2=O)cc1
- MIC (Escherichia coli [4]): > 64 µg/mL
- MIC (Staphylococcus aureus): 64 µg/mL (≈ 214 µM)

Structure (SMILES): CC(=O)NC[C@H]1CN(c2ccc(-c3ccc(CN)c(O)c3)c(F)c2)C(=O)O1
- MIC (Escherichia coli [1]): 64 µg/mL
- Ratio (Escherichia coli [2]): 16
- MIC (Escherichia coli [3]): 8 µg/mL (≈ 21.4 µM)
- MIC (Escherichia coli [4]): 128 µg/mL (≈ 343 µM)
- Ratio (Escherichia coli [5]): 2
- MIC (Staphylococcus aureus): 4 µg/mL (≈ 10.7 µM)

Structure (SMILES): CC(=O)NC[C@H]1CN(c2ccc(-c3ccc(F)c(O)c3)c(F)c2)C(=O)O1
- MIC (Escherichia coli [1]): 16 µg/mL
- Ratio (Escherichia coli [2]): >32
- MIC (Escherichia coli [3]): 8 µg/mL (≈ 22.1 µM)
- MIC (Escherichia coli [4]): > 256 µg/mL
- Ratio (Escherichia coli [5]): >16
- MIC (Staphylococcus aureus): 2 µg/mL (≈ 5.52 µM)

Structure (SMILES): O=C1O[C@@H](CO)CN1c1ccc(-c2ccccc2F)cc1
- Ratio (Escherichia coli [2]): >8
- MIC (Escherichia coli [3]): 8 µg/mL (≈ 27.8 µM)
- MIC (Escherichia coli [4]): > 64 µg/mL
- MIC (Staphylococcus aureus): 4 µg/mL (≈ 13.9 µM)

Structure (SMILES): NCc1ccc(-c2ccc(N3C[C@H](Cn4cc(C(=O)O)nn4)OC3=O)cc2F)cc1
- MIC (Escherichia coli [4]): > 256 µg/mL
- MIC (Staphylococcus aureus): > 64 µg/mL

Structure (SMILES): N/C(=N\O)c1ccc(-c2ccc(N3C[C@H](CNC(=O)C(F)(F)F)OC3=O)cc2F)cc1
- MIC (Escherichia coli [1]): 16 µg/mL
- Ratio (Escherichia coli [2]): >256
- MIC (Escherichia coli [3]): < 2 µg/mL
- MIC (Escherichia coli [4]): > 256 µg/mL
- Ratio (Escherichia coli [5]): >16
- MIC (Staphylococcus aureus): < 0.5 µg/mL

Structure (SMILES): O=C1O[C@@H](CNC(=O)C(F)(F)F)CN1c1ccc(-c2ccc(F)c(O)c2)c(F)c1
- MIC (Escherichia coli [1]): 256 µg/mL
- Ratio (Escherichia coli [2]): >2
- MIC (Escherichia coli [3]): 256 µg/mL (≈ 615 µM)
- MIC (Escherichia coli [4]): > 256 µg/mL
- Ratio (Escherichia coli [5]): >2
- MIC (Staphylococcus aureus): 32 µg/mL (≈ 76.9 µM)

Structure (SMILES): O=C1O[C@@H](CO)CN1c1ccc(-c2ccc([N+](=O)[O-])c(O)c2)c(F)c1
- Ratio (Escherichia coli [2]): 1
- Ratio (Escherichia coli [5]): 1

Structure (SMILES): NC[C@H]1CN(c2ccc(-c3ccc(F)c(O)c3)c(F)c2)C(=O)O1
- MIC (Escherichia coli [1]): 256 µg/mL
- Ratio (Escherichia coli [2]): 1
- MIC (Escherichia coli [3]): 256 µg/mL (≈ 799 µM)
- MIC (Escherichia coli [4]): 256 µg/mL (≈ 799 µM)
- Ratio (Escherichia coli [5]): 1
- MIC (Staphylococcus aureus): 64 µg/mL (≈ 200 µM)

Structure (SMILES): NCc1ccc(-c2ccc(N3C[C@H](C(=O)O)OC3=O)cc2F)cc1
- MIC (Escherichia coli [4]): > 256 µg/mL
- MIC (Staphylococcus aureus): > 64 µg/mL

Structure (SMILES): N#Cc1cc(O)cc(-c2ccc(N3C[C@H](Cn4ccnn4)OC3=O)cc2F)c1
- MIC (Escherichia coli [1]): 128 µg/mL
- Ratio (Escherichia coli [2]): >4
- MIC (Escherichia coli [3]): 64 µg/mL (≈ 169 µM)
- MIC (Escherichia coli [4]): > 256 µg/mL
- Ratio (Escherichia coli [5]): >2
- MIC (Staphylococcus aureus): 8 µg/mL (≈ 21.1 µM)

Structure (SMILES): O=C1O[C@@H](CO)CN1c1ccc(O)c(F)c1
- MIC (Escherichia coli [4]): > 256 µg/mL
- MIC (Staphylococcus aureus): > 64 µg/mL

Structure (SMILES): NCc1ccc(-c2ccc(N3C[C@H](CO)OC3=O)cc2F)cc1O
- Ratio (Escherichia coli [2]): 10.2
- Ratio (Escherichia coli [5]): 2.6

Structure (SMILES): O=C1CCc2cc(-c3ccc(N4C[C@H](CO)OC4=O)cc3F)cc(O)c21
- MIC (Escherichia coli [1]): 64 µg/mL
- Ratio (Escherichia coli [2]): 8
- MIC (Escherichia coli [3]): 8 µg/mL (≈ 22.4 µM)
- MIC (Escherichia coli [4]): > 256 µg/mL
- Ratio (Escherichia coli [5]): >32
- MIC (Staphylococcus aureus): 1 µg/mL (≈ 2.8 µM)

Structure (SMILES): NC(/C=C/c1ccc(N2C[C@H](CO)OC2=O)cc1F)=N\O
- MIC (Escherichia coli [4]): > 128 µg/mL
- MIC (Staphylococcus aureus): > 64 µg/mL

Structure (SMILES): NCc1ccc(-c2ccc(N3C[C@H](Cn4cc(CO)nn4)OC3=O)cc2F)cc1
- MIC (Escherichia coli [1]): 128 µg/mL
- MIC (Escherichia coli [3]): 64 µg/mL (≈ 161 µM)
- MIC (Escherichia coli [4]): 256 µg/mL (≈ 644 µM)
- Ratio (Escherichia coli [5]): 2
- MIC (Staphylococcus aureus): 16 µg/mL (≈ 40.3 µM)

Structure (SMILES): NCc1ccc(-c2ccc(N3C[C@H](Cn4nc[nH]c4=O)OC3=O)cc2F)cc1
- MIC (Escherichia coli [4]): > 64 µg/mL
- MIC (Staphylococcus aureus): 32 µg/mL (≈ 83.5 µM)

Structure (SMILES): NCc1ccc(-c2ccc(N3C[C@H](Cn4nncc4CO)OC3=O)cc2F)cc1
- MIC (Escherichia coli [4]): > 256 µg/mL
- MIC (Staphylococcus aureus): > 64 µg/mL
